Results taken from patent publication US20260295053A1, “COMPOUNDS FOR DEGRADATION AND INHIBITION OF KRAS (G12D) PROTEIN” (Shenzhen Ionova Life Science Co., Ltd., priority 2023, published 2026).

Tests used:
AsPC-1 cells = test: AsPC-1 cell proliferation assay (CellTiter Glo); assay type: cell-based; conditions: 6 days
Outline: (§1)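 Proliferation IC50 comes from CellTiter Glo luminescence after 6 days' exposure of AsPC-1 (3,500 cells/well) to 1:3 dilutions from […] to 1.5 nM. KRAS G12D DC50 derives from in-cell immunofluorescence normalised to β-actin after 24 h treatment of near-confluent AsPC-1 cells over the same range.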

KRAS (G12D) = target: T1, KRAS (G12D) (Homo sapiens, UniProt P01116, G12D); test: KRAS (G12D) cellular degradation assay in AsPC-1 cells; assay type: cell-based; conditions: 24 hours, antibody fluorescence (Odyssey CLX), DC50 half-maximal degradation concentration
T1 construct: in-cell western with KRAS G12D antibody after 24 h
T1 sequence (P01116 1-188 isoform P01116-2 G12D): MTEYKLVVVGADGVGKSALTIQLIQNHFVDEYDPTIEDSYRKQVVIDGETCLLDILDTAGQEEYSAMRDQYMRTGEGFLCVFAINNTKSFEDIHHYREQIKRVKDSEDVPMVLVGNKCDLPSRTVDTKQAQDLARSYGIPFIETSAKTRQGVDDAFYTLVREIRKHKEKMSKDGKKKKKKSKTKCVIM
Outline: as §1

Row | Compound | IC50 (AsPC-1 cells; Homo sapiens, ASPC1, 144 h) [nM] | DC50 (KRAS (G12D)) [nM] | IC50 (AsPC-1 cells) [nM]
1 | CCn1nccc1-c1ccc([C@@H](NC(=O)[C@@H]2C[C@@H](O)CN2C(=O)[C@H](C(C)C)n2cc(-c3ccc(COc4c(-c5c(C)c(F)cc6[nH]ncc56)c(C5CC5)cc5c(N(C)[C@H]6CCNC6)nc(O[C@H]6C[C@H](OC)C6)nc45)cc3)nn2)[C@H](C)O)cc1 [Example 170, (2S,4R)-1-((2S)-2-(4-(4-(((6-cyclopropyl-7-(6-fluoro-5-methyl-1H-indazol-4-yl)-2-((1r,3S)-3-methoxycyclobutoxy)-4-(methyl((S)-pyrrolidin-3-yl)amino)quinazolin-8-yl)oxy)methyl)phenyl)-1H-1,2,3-triazol-1-yl)-3-methylbutanoyl)-N-((1R,2S)-1-(4-(1-ethyl-1H-pyrazol-5-yl)phenyl)-2-hydroxypropyl)-4-hydroxypyrrolidine-2-carboxamide] | < 10 | < 10 | 
2 | CCn1nccc1-c1ccc(CNC(=O)[C@@H]2C[C@@H](O)CN2C(=O)[C@H](C(C)C)n2cc(-c3ccc(COc4c(-c5c(C)c(F)cc6[nH]ncc56)c(C5CC5)cc5c(N6C[C@@H]7C[C@H]6CN7)nc(OC[C@H](C)OC)nc45)cc3)nn2)c2c1CC2 [Example 36, (2S,4R)-1-((2S)-2-(4-(4-(((4-((1S,4S)-2,5-diazabicyclo[2.2.1]heptan-2-yl)-6-cyclopropyl-7-(6-fluoro-5-methyl-1H-indazol-4-yl)-2-((S)-2-methoxypropoxy)quinazolin-8-yl)oxy)methyl)phenyl)-1H-1,2,3-triazol-1-yl)-3-methylbutanoyl)-N-((5-(1-ethyl-1H-pyrazol-5-yl)bicyclo[4.2.0]octa-1(6),2,4-trien-2-yl)methyl)-4-hydroxypyrrolidine-2-carboxamide] | 10 to 100 | 10 to 100 | 
3 | CO[C@@H](C)COc1nc(N2C[C@@H]3C[C@H]2CN3)c2cc(C3CC3)c(-c3c(C)c(F)cc4[nH]ncc34)c(OCc3ccc(-c4cn([C@H](C(=O)N5C[C@H](O)C[C@H]5C(=O)N[C@H](C#Cc5cc(C)cc6[nH]ncc56)CO)C(C)C)nn4)cc3)c2n1 [Example 188, (2S,4R)-1-((2S)-2-(4-(4-(((4-((1S,4S)-2,5-diazabicyclo[2.2.1]heptan-2-yl)-6-cyclopropyl-7-(6-fluoro-5-methyl-1H-indazol-4-yl)-2-((S)-2-methoxypropoxy)quinazolin-8-yl)oxy)methyl)phenyl)-1H-1,2,3-triazol-1-yl)-3-methylbutanoyl)-4-hydroxy-N—((R)-1-hydroxy-4-(6-methyl-1H-indazol-4-yl)but-3-yn-2-yl)pyrrolidine-2-carboxamide] | 10 to 100 | 10 to 100 | 
4 | CCn1nccc1-c1ccc([C@H](CO)NC(=O)[C@@H]2C[C@@H](O)CN2C(=O)[C@H](C(C)C)n2cc(-c3ccc(COc4c(-c5c(C)c(F)cc6[nH]ncc56)c(C5CC5)cc5c(N6C[C@@H]7C[C@H]6CN7)nc(OC[C@H](C)OC)nc45)cc3Cl)nn2)cc1 [Example 32, (2S,4R)-1-((2S)-2-(4-(4-(((4-((1S,4S)-2,5-diazabicyclo[2.2.1]heptan-2-yl)-6-cyclopropyl-7-(6-fluoro-5-methyl-1H-indazol-4-yl)-2-((S)-2-methoxypropoxy)quinazolin-8-yl)oxy)methyl)-2-chlorophenyl)-1H-1,2,3-triazol-1-yl)-3-methylbutanoyl)-N—((R)-1-(4-(1-ethyl-1H-pyrazol-5-yl)phenyl)-2-hydroxyethyl)-4-hydroxypyrrolidine-2-carboxamide] | 10 to 100 | 10 to 100 | 
5 | CCn1nccc1-c1ccc([C@@H](NC(=O)[C@@H]2C[C@@H](O)CN2C(=O)[C@H](C(C)C)n2cc(-c3ccc(COc4c(-c5c(C)c(F)cc6[nH]ncc56)c(C5CC5)cc5c(N6C[C@@H]7C[C@H]6CN7)nc(O[C@H]6C[C@H](OC)C6)nc45)cc3)nn2)[C@H](C)O)c(F)c1 [Example 198, (2S,4R)-1-((2S)-2-(4-(4-(((4-((1S,4S)-2,5-diazabicyclo[2.2.1]heptan-2-yl)-6-cyclopropyl-7-(6-fluoro-5-methyl-1H-indazol-4-yl)-2-((1r,3S)-3-methoxycyclobutoxy)quinazolin-8-yl)oxy)methyl)phenyl)-1H-1,2,3-triazol-1-yl)-3-methylbutanoyl)-N-((1R,2S)-1-(4-(1-ethyl-1H-pyrazol-5-yl)-2-fluorophenyl)-2-hydroxypropyl)-4-hydroxypyrrolidine-2-carboxamide] | < 10 | < 10 | 
6 | CCn1nccc1-c1ccc([C@H](C)NC(=O)[C@@H]2C[C@@H](O)CN2C(=O)[C@H](C(C)C)n2cc(-c3ccc(COc4c(-c5c(C)c(F)cc6[nH]ncc56)c(C5CC5)cc5c(N6C[C@H]7C[C@@H]6CN7)nc(OC[C@H](C)OC)nc45)cc3)nn2)cc1 (single isomer, unassigned) [Example 4B] |  | > 1000 | > 1000

The remaining lines, values ahead:

Row | IC50 (AsPC-1 cells; Homo sapiens, ASPC1, 144 h) [nM] | DC50 (KRAS (G12D)) [nM] | IC50 (AsPC-1 cells) [nM] | Compound
7 | < 10 | < 10 |  | CCn1nccc1-c1ccc([C@H](CO)NC(=O)[C@@H]2C[C@@H](O)CN2C(=O)[C@H](C(C)C)n2cc(-c3ccc(COc4c(-c5c(C)c(F)cc6[nH]ncc56)c(C5CCC5)cc5c(N6C[C@@H]7C[C@H]6CN7)nc(OC[C@H](C)OC)nc45)cc3)nn2)cc1 [Example 68, (2S,4R)-1-((2S)-2-(4-(4-(((4-((1S,4S)-2,5-diazabicyclo[2.2.1]heptan-2-yl)-6-cyclobutyl-7-(6-fluoro-5-methyl-1H-indazol-4-yl)-2-((S)-2-methoxypropoxy)quinazolin-8-yl)oxy)methyl)phenyl)-1H-1,2,3-triazol-1-yl)-3-methylbutanoyl)-N—((R)-1-(4-(1-ethyl-1H-pyrazol-5-yl)phenyl)-2-hydroxyethyl)-4-hydroxypyrrolidine-2-carboxamide]
8 | 10 to 100 | 10 to 100 |  | CO[C@@H](C)COc1nc(N2C[C@@H]3C[C@H]2CN3)c2cc(C3CC3)c(-c3c(C)c(F)cc4[nH]ncc34)c(OCc3ccc(-c4cn([C@H](C(=O)N5C[C@H](O)C[C@H]5C(=O)N[C@H](C#Cc5cc6scnc6s5)CO)C(C)C)nn4)cc3)c2n1 [Example 67, (2S,4R)-1-((2S)-2-(4-(4-(((4-((1S,4S)-2,5-diazabicyclo[2.2.1]heptan-2-yl)-6-cyclopropyl-7-(6-fluoro-5-methyl-1H-indazol-4-yl)-2-((S)-2-methoxypropoxy)quinazolin-8-yl)oxy)methyl)phenyl)-1H-1,2,3-triazol-1-yl)-3-methylbutanoyl)-4-hydroxy-N—((R)-1-hydroxy-4-(thieno[2,3-d]thiazol-5-yl)but-3-yn-2-yl)pyrrolidine-2-carboxamide]
9 | 10 to 100 | 10 to 100 |  | CO[C@@H](C)COc1nc(N2C[C@@H]3C[C@H]2CN3)c2cc(C3CC3)c(-c3c(C)c(F)cc4[nH]ncc34)c(OCc3ccc(-c4cn([C@H](C(=O)N5C[C@H](O)C[C@H]5C(=O)N[C@H](C#Cc5ccccc5Cl)CO)C(C)C)nn4)cc3)c2n1 [Example 64, (2S,4R)-1-((2S)-2-(4-(4-(((4-((1S,4S)-2,5-diazabicyclo[2.2.1]heptan-2-yl)-6-cyclopropyl-7-(6-fluoro-5-methyl-1H-indazol-4-yl)-2-((S)-2-methoxypropoxy)quinazolin-8-yl)oxy)methyl)phenyl)-1H-1,2,3-triazol-1-yl)-3-methylbutanoyl)-N—((R)-4-(2-chlorophenyl)-1-hydroxybut-3-yn-2-yl)-4-hydroxypyrrolidine-2-carboxamide]
10 | < 10 | < 10 |  | CO[C@@H](C)COc1nc(N2CCNCC[C@H]2C)c2cc(C3CC3)c(-c3c(C)c(F)cc4[nH]ncc34)c(OCc3ccc(-c4cn([C@H](C(=O)N5C[C@H](O)C[C@H]5C(=O)N[C@H](c5ccc(-c6scnc6C)cc5)[C@H](C)O)C(C)C)nn4)cc3)c2n1 [Example 190, (2S,4R)-1-((2S)-2-(4-(4-(((6-cyclopropyl-7-(6-fluoro-5-methyl-1H-indazol-4-yl)-2-((S)-2-methoxypropoxy)-4-((R)-7-methyl-1,4-diazepan-1-yl)quinazolin-8-yl)oxy)methyl)phenyl)-1H-1,2,3-triazol-1-yl)-3-methylbutanoyl)-4-hydroxy-N-((1R,2S)-2-hydroxy-1-(4-(4-methylthiazol-5-yl)phenyl)propyl)pyrrolidine-2-carboxamide]
11 | < 10 | < 10 |  | CCn1nccc1-c1ccc([C@@H](NC(=O)[C@@H]2C[C@@H](O)CN2C(=O)[C@H](C(C)C)n2cc(-c3ccc(COc4c(-c5c(C)c(F)cc6[nH]ncc56)c(C5CC5)cc5c(N6C[C@@H]7C[C@H]6CN7)nc(O[C@H]6CC[C@H](OC)CC6)nc45)cc3)nn2)[C@H](C)O)cc1 [Example 121, (2S,4R)-1-((2S)-2-(4-(4-(((4-((1S,4S)-2,5-diazabicyclo[2.2.1]heptan-2-yl)-6-cyclopropyl-7-(6-fluoro-5-methyl-1H-indazol-4-yl)-2-(((1r,4S)-4-methoxycyclohexyl)oxy)quinazolin-8-yl)oxy)methyl)phenyl)-1H-1,2,3-triazol-1-yl)-3-methylbutanoyl)-N-((1R,2S)-1-(4-(1-ethyl-1H-pyrazol-5-yl)phenyl)-2-hydroxypropyl)-4-hydroxypyrrolidine-2-carboxamide]
12 | < 10 | < 10 |  | CCn1nccc1-c1ccc([C@H](CO)NC(=O)[C@@H]2C[C@@H](O)CN2C(=O)[C@H](C(C)C)n2cc(-c3ccc(COc4c(-c5c(C)c(F)cc6[nH]ncc56)c(C5CC5)cc5c(N6C[C@@H]7C[C@H]6CN7)nc(OC6CC7(COC7)C6)nc45)cc3)nn2)cc1 [Example 69, (2S,4R)-1-((2S)-2-(4-(4-(((2-((2-oxaspiro[3.3]heptan-6-yl)oxy)-4-((1S,4S)-2,5-diazabicyclo[2.2.1]heptan-2-yl)-6-cyclopropyl-7-(6-fluoro-5-methyl-1H-indazol-4-yl)quinazolin-8-yl)oxy)methyl)phenyl)-1H-1,2,3-triazol-1-yl)-3-methylbutanoyl)-N—((R)-1-(4-(1-ethyl-1H-pyrazol-5-yl)phenyl)-2-hydroxyethyl)-4-hydroxypyrrolidine-2-carboxamide]
